Measurements taken from patent US20050033056A1, “Hydroxylated indole derivatives and uses thereof” (priority 2001, published 2005).

How the values were obtained:
[1] = tested on: CYP1A1/2; experiment: CYP induction in primary human hepatocytes, Western immunoblotting: CYP1A1/2; assay type: cell-based; conditions: 10 or 50 μM for 72 hours; hepatocytes from three donors
Experimental: (§1) Upon receiving a primary culture of human hepatocytes in 6-well plates, the culture medium containing streptomycin/penicillin was refreshed (2 ml/well). […] Compound 1 stock solution was added to the culture medium at a 1:400 ratio (v/v). The culture medium and testing compounds were replenished every 24 hours.
(§2) At the end of the treatment, the cells were harvested into 1 mL of phosphate-buffered saline (PBS) after washing twice. The cells were precipitated by centrifugation, and were resuspended in PBS (approximately 50 μL). The sample preparation, after mixing with […] of Laemmli buffer (62.5 mM Tris-HCl containing 2% SDS, 25% glycerol, and 0.01% bromophenol, pH 6.8) and being rocked for 2-4 hours, was mixed with 10 μL of 2-mercaptoethanol, and heated at 90° C. for 10 minutes before electrophoresis.
(§3) Proteins were resolved in a 12% SDS-PAGE gel using a mini gel apparatus at a constant voltage ([…]) for 70-80 minutes, and transferred onto a polyvinylidene difluoride (PVDF) membrane using a membrane-transferring unit at a constant voltage ([…]) for 60 minutes. The membrane was blocked by 5% non-fat dried milk (NFDM) blotting buffer (PBS containing 0.05% Tween 20) at 4° C. overnight. […] CYP proteins were detected by […] using an X-ray developer.

[2] = tested on: major CYP expression; experiment: CYP induction in primary hepatocyte cultures (summary statement, major CYPs); assay type: cell-based, human; conditions: 72 hour exposure to 10 or 50 μM; primary hepatocyte cultures from three subjects
Experimental: as §1, §2, §3

[3] = target: 5-HT2 receptor; conditions: background statement, see WO 98/43956 and EP 0 976 732 A1; cited from earlier work
[4] = target: CYP2D6 (Homo sapiens, UniProt P10635); experiment: CYP inhibition in HLM: bufuralol 1'-hydroxylation; assay type: in vitro ADME; set-up: tissue Gentest Corp. (Woburn, Mass.); host or cells: pooled human liver microsomes; conditions: in the presence of Compound 1, concentration-dependent
CYP2D6, sequence (P10635 whole entry): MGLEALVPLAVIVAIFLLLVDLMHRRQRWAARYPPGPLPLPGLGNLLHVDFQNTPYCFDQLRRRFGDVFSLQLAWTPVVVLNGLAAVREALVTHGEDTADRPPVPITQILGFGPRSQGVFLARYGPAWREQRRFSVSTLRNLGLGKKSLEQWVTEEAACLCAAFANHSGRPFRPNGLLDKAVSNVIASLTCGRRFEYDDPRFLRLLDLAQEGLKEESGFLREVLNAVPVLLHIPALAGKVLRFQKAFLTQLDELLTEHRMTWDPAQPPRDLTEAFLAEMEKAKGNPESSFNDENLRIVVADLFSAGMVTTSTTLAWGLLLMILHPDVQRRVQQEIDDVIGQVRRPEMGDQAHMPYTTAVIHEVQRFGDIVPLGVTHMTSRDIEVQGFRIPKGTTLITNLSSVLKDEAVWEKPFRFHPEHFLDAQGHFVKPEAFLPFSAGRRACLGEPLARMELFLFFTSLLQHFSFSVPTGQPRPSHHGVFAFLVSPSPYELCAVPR
Experimental: The incubations were carried out in test tubes (12.0×75 mm). The incubation mixtures (250 μL) contained 0.5 mg of HLM protein, 50 (CYP1A2 and CYP2E1) or 25 (CYP2C9, CYP2C19, CYP2D6 and CYP3A4) pmol of recombinant human CYPs, Compound 1 (10 or 50 μM), probe substrate (R—, S-warfarin, chlorzoxazone, S-mephenyloin, or bufuralol) at different concentrations, and 0.5 mg of NADPH in 50 mM Tris buffer containing 15 mM MgCl2 (pH 7.4). Compound 1 was added to the reaction mixture 5 minutes prior to the addition of the probe substrate. […]
The quantification was based on the calibration curves, and the quality control (QC) samples were applied to ensure the quality of the experiments. […]
3. […] Multiple reaction monitoring (MRM) was applied for the quantification. […]
Data were acquired and analyzed by ChemStation (Version 6.03, Hewlett Packard, Waldbronn, Germany) for 6-, 7-, and 10-hydroxywarfarin and 6-hydroxychlorzoxazone, and MacQuan (Version 1.6, PE Biosystem, Foster City, Calif.) for 1′-hydroxybufuralol and 4′-hydroxymephenytoin. Quantification was based on peak area ratios of metabolites over the respective IS against the respective concentration of the metabolites. […] The metabolic rates were determined using Excel (Microsoft Office 97, Microsoft Corporation, Redmond, Wash.) or SigmaPlot (Version 6.00, SPSS Inc. Chicago, Ill.). […]

Structure (SMILES): CNC(=O)Cc1ccc2ccn(C3CCN(CCc4ccccc4F)CC3)c2c1 [Compound 1, N-methyl-[1-[1-(2-fluorophenethyl)piperidine-4-yl]-1H-indol-6-yl] acetamide]
- expression of CYP1A1/2 (Western immunoblotting) [1]: did not increase
- Induction of major CYP expression (immunochemical detection) [2]: not detected
- IC50, binding to 5-HT2 receptor [3]: low nanomolar
- effect on CYP2D6-mediated bufuralol 1'-hydroxylation activity (in words) [4]: significantly reduced
